The text below walks through data of patent US8895568B2, “Compositions comprising substituted pteridines as agrochemicals” (Dow AgroSciences LLC, priority 2009, dated 2014).

Type in all cases: in vivo
The test system of assay [1] is Puccinia recondita tritici. The experiment in a line: Leaf Rust of Wheat (PUCCRT), foliar spray, percent disease control. Conditions: tested at 8.3 ppm. The method, then:
The activity of the compounds as effective fungicides was determined by applying the compounds to plants and observing control of fungal disease. The compounds were formulated at 200 ppm in 10 vol. % acetone plus 90 vol. % Triton X water (deionized water 99.99 wt %+0.01 wt % Triton X100), giving a “formulated test compound.” In a few cases, compounds were formulated at 75 or 8.3 ppm rather than 200 ppm in 10 vol. % acetone plus 90 vol. % Triton X water (deionized water 99.99 wt. %+0.01 wt. % Triton X100), giving a “formulated test compound.” Formulated test compounds were applied to plants using a turn table sprayer fitted with two opposing air atomization nozzles which delivered approximately 1500 L/ha of spray volume. All plants were inoculated with spores of the fungus the day after treatment, then incubated in an environment conducive to disease development. Disease severity was evaluated 4 to 15 days later, depending on the disease and the speed of disease development. The following experiments were performed in the laboratory to determine the fungicidal efficacy of the compounds of the invention. […] Each pot contained 3-8 seedlings. These plants were sprayed until wet with the formulated test compounds. On the following day, the leaves were inoculated with an aqueous spore suspension of Puccinia recondita tritici and the plants were kept in high humidity overnight to permit spores to germinate and infect the leaf. The plants were then transferred to a greenhouse until disease developed on untreated control plants. […] The effectiveness of the test compounds at controlling disease when sprayed on leaves was determined by assessing the severity of disease on treated plants, then converting the severity to percent control based on the level of disease on untreated, inoculated plants. Data are the level (in percent) at which the given disease was controlled when the given compound was applied to the foliage of the plants at 200 ppm. In a few cases (noted in the table) the compound was applied to the plants at 75 ppm or 8.3 ppm.

Another assay deals with Leptosphaeria nodorum. The experiment in a line: Glume Blotch of Wheat (LEPTNO), foliar spray, percent disease control. The note with it: Parastagonospora nodorum, tested at 75 ppm. The method, then: The activity of the compounds as effective fungicides was determined by applying the compounds to plants and observing control of fungal disease. The compounds were formulated at 200 ppm in 10 vol. % acetone plus 90 vol. % Triton X water (deionized water 99.99 wt %+0.01 wt % Triton X100), giving a “formulated test compound.” In a few cases, compounds were formulated at 75 or 8.3 ppm rather than 200 ppm in 10 vol. % acetone plus 90 vol. % Triton X water (deionized water 99.99 wt. %+0.01 wt. % Triton X100), giving a “formulated test compound.” Formulated test compounds were applied to plants using a turn table sprayer fitted with two opposing air atomization nozzles which delivered approximately 1500 L/ha of spray volume. All plants were inoculated with spores of the fungus the day after treatment, then incubated in an environment conducive to disease development. Disease severity was evaluated 4 to 15 days later, depending on the disease and the speed of disease development. The following experiments were performed in the laboratory to determine the fungicidal efficacy of the compounds of the invention. […] Each pot contained 3-20 seedlings. These plants were sprayed until wet with the formulated test compound. On the following day, the leaves were inoculated with an aqueous spore suspension of Leptosphaeria nodorum and the plants were kept in high humidity (one day in a dark dew chamber followed by four days in a lighted dew chamber) to permit spores to germinate and infect the leaf. The plants were then transferred to a greenhouse until disease developed on untreated control plants. […] The effectiveness of the test compounds at controlling disease when sprayed on leaves was determined by assessing the severity of disease on treated plants, then converting the severity to percent control based on the level of disease on untreated, inoculated plants. Data are the level (in percent) at which the given disease was controlled when the given compound was applied to the foliage of the plants at 200 ppm. In a few cases (noted in the table) the compound was applied to the plants at 75 ppm or 8.3 ppm.

For another assay, the system named is Magnaporthe grisea. Put plainly: whole plant or invertebrate. The note with it: Pyricularia oryzae, foliar, read-out: PYRIOR percent control.
The test system of assay [2] is DROSME, AEDSAE, LAPHEG, or HELIVI. Put plainly: Insecticidal activity, active if any of DROSME, AEDSAE, LAPHEG or HELIVI was controlled at 80% or more. The note with it: read-out: >80% mortality on any insect species @ 4000 ppm.

Molecules are shown by their SMILES.

Regarding `Cc1ccnc(Cl)c1Oc1ccc(CCNc2ncnc3nccnc23)cc1` [Compound 98], the pest or weed control at 8.3 ppm (in assay [1]; in the assay with Magnaporthe grisea) was 50 to 79% in each case. In the assay with Leptosphaeria nodorum, this compound returned a pest or weed control at 75 ppm of 0 to 49%.
Consider `Clc1csc(Oc2ccc(CCNc3ncnc4nccnc34)cc2)n1` [Compound 31], for which the pest or weed control at 8.3 ppm is 50 to 79% in assay [1] and 80 to 100% in the assay with Magnaporthe grisea. In the assay with Leptosphaeria nodorum, this compound registered a pest or weed control at 75 ppm of 0 to 49%.
On the same counts, the results for `Fc1cc(Oc2ccc(C(F)(F)F)cn2)ccc1CCNc1ncnc2nccnc12` [Compound 105] are 80 to 100%, 80 to 100% and 80 to 100%.
For `COc1ccc(CCNc2ncnc3nccnc23)cc1` [Compound 45] the same measures were 50 to 79%, 80 to 100% and 0 to 49%.
On the same counts, the results for `N#Cc1c(Cl)cncc1Oc1cccc(CCNc2ncnc3nccnc23)c1` [Compound 70] are 50 to 79%, 50 to 79% and 0 to 49%.
As to `FC(F)(F)c1cnc2nc(Oc3ccc(CCNc4ncnc5nccnc45)cc3)sc2c1` [Compound 32], the pest or weed control at 8.3 ppm (in assay [1]; in the assay with Magnaporthe grisea) was 50 to 79% each time. In addition, the pest or weed control at 75 ppm with Leptosphaeria nodorum fell in the range of 0 to 49%.
On to `Cc1ccnc(Oc2ccc(CCNc3ncnc4nccnc34)cc2)c1F` [Compound 99], for which the pest or weed control at 8.3 ppm (in assay [1]; in the assay with Magnaporthe grisea) was 80 to 100% throughout. The same compound returned a pest or weed control at 75 ppm in the assay with Leptosphaeria nodorum of 50 to 79%.
Compound `FC(F)(F)c1ccnc(Oc2ccc(CCNc3ncnc4nccnc34)cc2C(F)(F)F)c1` [Compound 227] yielded a pest or weed control at 8.3 ppm in assay [1] of 80 to 100%. The pest or weed control at 75 ppm in the assay on Leptosphaeria nodorum was 80 to 100%.
In assay [1], `FC(F)(F)c1ccnc(Oc2ccc(CCOc3ncnc4nccnc34)cc2)c1` [Compound 206, 4-{2-[4-(4-Trifluoromethylpyridin-2-yloxy)-phenyl]-ethoxy}-pteridine] had a pest or weed control at 8.3 ppm of 0 to 49%. The same compound showed a pest or weed control at 75 ppm with Leptosphaeria nodorum of 0 to 49%.
In the case of `COc1ccc2c(c1)CC(Nc1ncnc3ncc(C)nc13)C2` (stereo not drawn) [Compound 116], the pest or weed control at 8.3 ppm in assay [1] was in the range of 0 to 49%; with Magnaporthe grisea it was 50 to 79%. The compound further showed a pest or weed control at 75 ppm in the assay with Leptosphaeria nodorum of 0 to 49%. Moreover, the pest or weed control at 4000 ppm in assay [2] was greater than 80%.
Consider `Cc1nc(NCCc2ccc(Oc3cc(C(F)(F)F)ccn3)cc2)c2nc(C)c(C)nc2n1` [Compound 226], for which the pest or weed control at 8.3 ppm (in assay [1]; in the assay on Magnaporthe grisea) was 0 to 49% each time. For the same compound, the pest or weed control at 75 ppm with Leptosphaeria nodorum is 0 to 49%.
As for `CC(C)(C)OC(=O)c1ccc(Oc2ccc(CCNc3ncnc4nccnc34)cc2)cc1` [Compound 154], the pest or weed control at 8.3 ppm (in assay [1]; with Magnaporthe grisea) was 80 to 100% each time. For the same compound, the pest or weed control at 75 ppm with Leptosphaeria nodorum was 80 to 100%.
As for `Fc1cnc(C(F)(F)F)c(F)c1Oc1ccc(CCNc2ncnc3ncc(Cl)nc23)cc1` [Compound 117], the pest or weed control at 8.3 ppm lay in the range of 50 to 79% in assay [1] and 80 to 100% with Magnaporthe grisea. The same compound displayed a pest or weed control at 75 ppm in the assay with Leptosphaeria nodorum of 50 to 79%. Further, in assay [2], the pest or weed control at 4000 ppm is greater than 80%.
